# Laboratory results published in patent US5556854A, “Pyridopyrimidinediones, processes for their preparation and their use as drugs” (Hoechst Aktiengesellschaft, priority 1993, dated 1996).
# Test system: ischemic skeletal muscle (gastrocnemius-plantaris-soleus group)
# Assay: Contractility of the skeletal muscle after chronic ischemia (PVD fatigue model)
# Type: in vivo, male Wistar rats
# Conditions: PVD fatigue model: 6 mg/kg po, 7 days; after 5 minutes of stimulation, 24 h after last administration
# Description: B) Action on the contractility of the skeletal muscle after chronic ischemia Ideas about the pathophysiology of chronic peripheral arterial occlusive disease have changed in recent years as interest has shifted increasingly from the macrocirculation to the microcirculation=disorders in the microcirculation manifest themselves in an inadequate supply of substrates with consequent tissue ischemia, which in turn leads to impairment of the function of the extremity in question. The compounds according to the invention were tested for their function-improving action by means of measurements of the contractile force in the ischemic skeletal muscle using the experimental set-up described below. The experimental animals used were male Wistar rats with a body weight of 380 to 410 g. With the animals under hexobarbital narcosis (®[…] Sodium, 200 mg/kg body weight ip), a monolateral ligature of the right femoral artery was made in the groin. After dusting with penicillin sulfonamide powder for the antibiotic protection of the wound, the small surgical wound was closed and the animals were observed continuously until fully awake. One week later, oral administration of the substance with a stomach tube was started (6 mg/kg body weight, carboxymethyl cellulose sodium suspension) and was continued for 7 days (single administration per day, ca. 7.30 am to 8.30 am). The contractile force was measured 24 h after the last administration of the substance so as to exclude acute effects, the experimental protocol being as follows: The animals were narcotized with ®Nembutal (pentobarbital sodium, 35 mg/kg body weight ip), the muscles of the extremity in question were exposed (gastrocnemius-plantaris-soleus group) and the tendon was connected to a force transducer with a preload of 50 g. A superfusion with isotonic solution (37° C.) served to avoid dehydration and cooling. The mean arterial blood pressure was recorded continuously via a cannulated carotid artery with the aid of a hemodynamometer in order to monitor the physiological state of the animals during the experiment. All the animals breathed spontaneously through an inserted endotracheal tube. After these preparations had been made, the muscle was caused to contract by direct electrical stimulation (2.5 mA, 2 Hz) (Stimulator I, Hugo Sachs, Federal Republic of Germany). The measurement parameter used for the action of the preparation was the absolute contractile force in grams after 5 minutes of stimulation. The change in the contractile force in comparison with the ischemic control muscle is given as the percentage change at this time (see Table 2).
row,SMILES,Change in the contractile force in comparison with the ischemic control muscle
1,O=c1[nH]c2c(c(=O)[nH]1)CN(Cc1ccccc1)CC2 [Compound 23],+129%
2,C=C(C)CN1CCc2[nH]c(=O)n(C)c(=O)c2C1 [Compound 26],+114%
3,"Cl.Cn1c(=O)[nH]c2c(c1=O)CN(Cc1ccccc1)CC2 [Compound 2, 6-Benzyl-3-methyl-5,6,7,8-tetrahydro-1H-pyrido[4,3-d]-pyrimidine-2,4-dione hydrochloride]",+136%
4,Cn1c(=O)[nH]c2c(c1=O)CN(C(C(=O)O)c1ccccc1Cl)CC2 (stereo not shown) [Compound 20],+137%
5,CCn1c2c(c(=O)n(C)c1=O)CN(Cc1ccccc1Cl)CC2 [Compound 16],+148%
6,"Cn1c(=O)[nH]c2c(c1=O)CN(CCO)CC2 [Compound 8, 6-(2-Hydroxyethyl)-3-methyl-5,6,7,8-tetrahydro-1H-pyrido[4,3-d]pyrimidine-2,4-dione]",+151%
7,Cn1c(=O)[nH]c2c(c1=O)CN(CCCO)CC2 [Compound 37],+45%
